Where two headings read alike, the source gives them in different places.
Legend:
[1] = mouse, in vivo, po
Protocol: (§1) Thirty-six male CD-1 mice (22-24 g) were purchased from Charles River Labs (Wilmington, Mass.). Before the study, they were allowed acclimation for at least 3 days in an SPF facility. Animal housing, handling and procedures were conducted under the protocols or guidelines approved by the Institutional Animal Care and Use Committee (IACUC) of Cephrim Biosciences, Inc. (Woburn, Mass.). Three mice were housed in each cage. The temperature, humidity and light/dark cycle were well maintained at 68-76° F., 40-60% relative humidity, with a 12 h light/dark cycle. Mice were allowed free access to water and food.
(§2) On the first day of the study, the mice were randomly assigned into two groups, alcohol extract (AE, of DDGS) group and oil extract (OE, of DDGS) group. Each group of mice was further divided into 6 subgroups, representing 6 time points (i.e., 0 hr, 0.5 hr, 1.0 hr, 3.0 hr, 7.0 hr and 24 hr). Each of two extracts was given to each group of mice by oral gavage at the dosage of 2 mL for AE and 2 mL for OE. The time of dosing was set as the Time Zero. Blood samples were collected by cardiac puncture and were immediately transferred to a set of heparinized tubes.
(§3) Blood samples at Time-0 hr were collected right before dosing. And at each of rest 5 time points the Time-0.5 hr, -1.0 hr, -3.0 hr, -7.0 hr and −24 hr after the extracts were given, blood samples were collected from each subgroup (n=3). All blood samples were placed on ice after their collection and were spun at 14000 rpm/min. The top plasma were transferred into new pre-labeled tubes and the samples were stored at −70° C. until analysis.
(§4) Mice plasmas (150 pt) were mixed with 600 pt of hexane and shaken at 200 rpm for 10 min. The mixtures were centrifuged at 14,000 rpm for 6 min. The supernatant was evaporated to dryness under nitrogen and replaced with 100 pt of methanol. […]
(§5) Compounds were separated on a C30 reverse-phase column (250×4.6 mm, 5 um) at a flow rate of 1 mL/min. […] The detection was conducted in a fluorescence detector with excitation of 292 nm and emission of 336 nm. […]

[2] = Bioavailability study: absorption of DDGS phytochemicals in plasma of mice after oral gavage of DDGS extracts; settings: oral gavage of 2 mL alcohol extract (AE) or oil extract (OE) of DDGS, plasma sampled at 0, 0.5, 1.0, 3.0, 7.0 and 24 hr, HPLC
Protocol: as §1, §2, §3, §4, §5

Row | SMILES | time of maximal absorption in plasma of mice after gastric infusion [1] | time of maximal absorption in plasma of mice after gastric infusion [2]
1 | Cc1c(C)c2c(c(C)c1O)CC[C@@](C)(CCC[C@H](C)CCC[C@H](C)CCCC(C)C)O2 [alpha-tocopherol] | 3 h | –
2 | CC(C)=CCC/C(C)=C/CC/C(C)=C/CC[C@]1(C)CCc2cc(O)cc(C)c2O1 [delta-tocotrienol] | 24 h | –
3 | Cc1c(O)cc2c(c1C)O[C@](C)(CCC[C@H](C)CCC[C@H](C)CCCC(C)C)CC2 [gamma-tocopherol] | – | 3 h
